This passage reports IC50 results from patent US10266495B2, “Phenyl quinolinone derivatives as mutant-isocitrate dehydrogenase inhibitors” (FORMA TM2, Inc., priority 2014, dated 2019).

For orientation: IC50 means the concentration needed to halve the response being measured.

Test [1] deals with IDH1-R132C recombinant protein (Homo sapiens, UniProt O75874, R132C). Put plainly: IDH1-R132C enzymatic assay (NADPH consumption, diaphorase/resazurin readout). In kind it is biochemical. The settings on record: read-out: Enzyme IDH1 R132C IC50 Range. As for the experimental part:
(§1) Assays were performed in a 384-well black plate. An aliquot of 250 nL of compound was incubated with 10 μL of 30 nM IDH1-R132H or 10 nM IDH1-R132C recombinant protein in assay buffer (50 mM Tris pH=7.5, 150 mM NaCl, 5 mM MgCl2, 0.1% (w/v) Bovine Serum Albumin, and 0.01% Triton X-100) in each well at 25° C. for 15 minutes. After the plate was centrifuged briefly, an aliquot of 10 μL of 2 mM α-ketoglutarate and 20 μM NADPH solution prepared in assay buffer was then added to each well and the reaction was maintained at 25° C. for 45 minutes. An aliquot of 10 μL of diaphorase solution (0.15 U/mL diaphorase and 30 μM Resazurin in assay buffer) was added to each well. […] The IC50 of a given compound was calculated by fitting the dose response curve of inhibition of NADPH consumption at a given concentration with the four parameter logistic equation.

Test [2] addresses IDH1-R132H recombinant protein (Homo sapiens, UniProt O75874, R132H). Put plainly: IDH1-R132H enzymatic assay (NADPH consumption, diaphorase/resazurin readout). In kind it is biochemical. The settings on record: read-out: Enzyme IDH1 R132H IC50 Range. As for the experimental part: as §1
In general terms: Resazurin is reduced to fluorescent resorufin, in cell work by metabolically active cells.

Sequence of IDH1-R132C recombinant protein (O75874 whole entry R132C): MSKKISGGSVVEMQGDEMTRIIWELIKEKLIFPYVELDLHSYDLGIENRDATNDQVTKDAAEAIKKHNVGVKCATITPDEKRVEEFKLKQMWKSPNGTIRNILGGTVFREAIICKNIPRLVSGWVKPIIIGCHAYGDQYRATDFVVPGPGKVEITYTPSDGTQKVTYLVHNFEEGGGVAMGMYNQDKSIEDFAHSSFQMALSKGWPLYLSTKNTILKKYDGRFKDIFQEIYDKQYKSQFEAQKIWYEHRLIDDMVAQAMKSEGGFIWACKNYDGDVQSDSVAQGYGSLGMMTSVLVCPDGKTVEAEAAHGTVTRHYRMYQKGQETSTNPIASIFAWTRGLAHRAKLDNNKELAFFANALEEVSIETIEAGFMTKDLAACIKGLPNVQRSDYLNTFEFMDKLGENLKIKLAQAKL
Sequence of IDH1-R132H recombinant protein (O75874 whole entry R132H): as the sequence (O75874 whole entry R132C) above, with C132H counted along it

As for `COc1cc(NCc2cc3cc(Cl)c(OCC(=O)N(C)C)cc3[nH]c2=O)ccc1C#N` [Compound I-67, 2-[(6-chloro-3-{[(4-cyano-3-methoxyphenyl)amino]methyl}-2-oxo-1,2-dihydroquinolin-7-yl)oxy]-N,N-dimethylacetamide], the IC50 in test [1] is > 1000 nM; in test [2], 10 to 100 nM.
Turning to `COc1cc(NCc2cc3cc(Cl)c(OCC(N)=O)cc3[nH]c2=O)ccc1C#N` [Compound I-68, 2-[(6-chloro-3-{[(4-cyano-3-methoxyphenyl)amino]methyl}-2-oxo-1,2-dihydroquinolin-7-yl)oxy]acetamide], the IC50 in test [1] was 100 to 1000 nM; in test [2], 10 to 100 nM.
Regarding `COc1cc(NCc2cc3cc(Cl)c(OCC(=O)N4CCOCC4)cc3[nH]c2=O)ccc1C#N` [Compound I-69, 4-[({6-chloro-7-[2-(morpholin-4-yl)-2-oxoethoxy]-2-oxo-1,2-dihydroquinolin-3-yl}methyl)amino]-2-methoxybenzonitrile], the results for the IC50 in test [1] and in test [2] were > 1000 nM and 10 to 100 nM, respectively.
For the molecule `COc1cc(NCc2cc3cc(Cl)c(OCc4cc(C)n(C)n4)cc3[nH]c2=O)ccc1C#N` [Compound I-70, 4-[({6-chloro-7-[(1,5-dimethyl-1H-pyrazol-3-yl)methoxy]-2-oxo-1,2-dihydroquinolin-3-yl}methyl)amino]-2-methoxybenzonitrile], the IC50 fell in the range of 100 to 1000 nM in test [1] and 10 to 100 nM in test [2].
On to `COc1cc(NCc2cc3cc(Cl)c(OCc4ccccc4)cc3[nH]c2=O)ccc1C#N` [Compound I-71, 4-({[7-(benzyloxy)-6-chloro-2-oxo-1,2-dihydroquinolin-3-yl]methyl}amino)-2-methoxybenzonitrile], for which the figures for the IC50 in test [1] and in test [2] were > 1000 nM and 10 to 100 nM, respectively.
For `COc1cc(NCc2cc3cc(Cl)c(OCC4CCCCN4C)cc3[nH]c2=O)ccc1C#N` (stereo not drawn) [Compound I-72, 4-[({6-chloro-7-[(1-methylpiperidin-2-yl)methoxy]-2-oxo-1,2-dihydroquinolin-3-yl}methyl)amino]-2-methoxybenzonitrile], in that order: > 1000 nM and 10 to 100 nM.
Regarding `COc1cc(NCc2cc3cc(Cl)c(OCc4ccncc4)cc3[nH]c2=O)ccc1C#N` [Compound I-74, 4-({[6-chloro-2-oxo-7-(pyridin-4-ylmethoxy)-1,2-dihydroquinolin-3-yl]methyl}amino)-2-methoxybenzonitrile], the IC50 is > 1000 nM in test [1] and 100 to 1000 nM in test [2].
With `COc1cc(NCc2cc3cc(Cl)c(OCC4CCS(=O)(=O)CC4)cc3[nH]c2=O)ccc1C#N` [Compound I-75, 4-[({6-chloro-7-[(1,1-dioxo-1λ^6-thian-4-yl)methoxy]-2-oxo-1,2-dihydroquinolin-3-yl}methyl)amino]-2-methoxybenzonitrile], the IC50 in test [1] is > 1000 nM; in test [2], 100 to 1000 nM.
For `COc1cc(NCc2cc3cc(Cl)c(OCc4cnccn4)cc3[nH]c2=O)ccc1C#N` [Compound I-76, 4-({[6-chloro-2-oxo-7-(pyrazin-2-ylmethoxy)-1,2-dihydroquinolin-3-yl]methyl}amino)-2-methoxybenzonitrile], the IC50 is > 1000 nM in test [1] and 10 to 100 nM in test [2].
Take `COc1cc(NCc2cc3cc(Cl)c(OCc4cncn4C)cc3[nH]c2=O)ccc1C#N` [Compound I-77, 4-[({6-chloro-7-[(1-methyl-1H-imidazol-5-yl)methoxy]-2-oxo-1,2-dihydroquinolin-3-yl}methyl)amino]-2-methoxybenzonitrile]: the IC50 in test [1] was 100 to 1000 nM; in test [2] it was 10 to 100 nM.
Regarding `COc1cc(NCc2cc3cc(Cl)c(OCc4nccn4C)cc3[nH]c2=O)ccc1C#N` [Compound I-78, 4-[({6-chloro-7-[(1-methyl-1H-imidazol-2-yl)methoxy]-2-oxo-1,2-dihydroquinolin-3-yl}methyl)amino]-2-methoxybenzonitrile], the IC50 was in the range of 100 to 1000 nM in test [1] and 10 to 100 nM in test [2].
Consider `COc1cc(NCc2cc3cc(Cl)c(OCc4nc(C(N)=O)no4)cc3[nH]c2=O)ccc1C#N` [Compound I-79, 5-{[(6-chloro-3-{[(4-cyano-3-methoxyphenyl)amino]methyl}-2-oxo-1,2-dihydroquinolin-7-yl)oxy]methyl}-1,2,4-oxadiazole-3-carboxamide], for which the IC50 in test [1] was 100 to 1000 nM; in test [2] it was 10 to 100 nM.
For the molecule `COc1cc(NCc2cc3cc(Cl)c(OCCc4ccccn4)cc3[nH]c2=O)ccc1C#N` [Compound I-80, 4-[({6-chloro-2-oxo-7-[2-(pyridin-2-yl)ethoxy]-1,2-dihydroquinolin-3-yl}methyl)amino]-2-methoxybenzonitrile], the IC50 in test [1] is > 1000 nM; in test [2], 10 to 100 nM.
In the case of `COc1cc(NCc2cc3cc(Cl)c(OCCc4ccncc4)cc3[nH]c2=O)ccc1C#N` [Compound I-81, 4-[({6-chloro-2-oxo-7-[2-(pyridin-4-yl)ethoxy]-1,2-dihydroquinolin-3-yl}methyl)amino]-2-methoxybenzonitrile], the IC50 in test [1] is > 1000 nM; in test [2] it was 10 to 100 nM.
For the molecule `COc1cc(NCc2cc3cc(Cl)c(OCCCN(C)C)cc3[nH]c2=O)ccc1C#N` [Compound I-82, 4-[({6-chloro-7-[3-(dimethylamino)propoxy]-2-oxo-1,2-dihydroquinolin-3-yl}methyl)amino]-2-methoxybenzonitrile], the values for the IC50 in test [1] and in test [2] were > 1000 nM and 100 to 1000 nM, respectively.
For the molecule `COc1cc(NCc2cc3cc(Cl)c(OCCCN4CCCC4)cc3[nH]c2=O)ccc1C#N` [Compound I-83, 4-[({6-chloro-2-oxo-7-[3-(pyrrolidin-1-yl)propoxy]-1,2-dihydroquinolin-3-yl}methyl)amino]-2-methoxybenzonitrile], the values for the IC50 in test [1] and in test [2] were > 1000 nM and 10 to 100 nM, respectively.
With `COc1cc(NCc2cc3cc(Cl)c(OCCCN4CCCCC4)cc3[nH]c2=O)ccc1C#N` [Compound I-84, 4-[({6-chloro-2-oxo-7-[3-(piperidin-1-yl)propoxy]-1,2-dihydroquinolin-3-yl}methyl)amino]-2-methoxybenzonitrile], the IC50 was > 1000 nM in test [1] and 100 to 1000 nM in test [2].
With `COc1cc(NCc2cc3cc(Cl)c(OCCN4CCCC4)cc3[nH]c2=O)ccc1C#N` [Compound I-85, 4-[({6-chloro-2-oxo-7-[2-(pyrrolidin-1-yl)ethoxy]-1,2-dihydroquinolin-3-yl}methyl)amino]-2-methoxybenzonitrile], the figures for the IC50 in test [1] and in test [2] were > 1000 nM and 100 to 1000 nM, respectively.
Consider `COc1cc(NCc2cc3cc(Cl)c(OCCN4CCCC4=O)cc3[nH]c2=O)ccc1C#N` [Compound I-86, 4-[({6-chloro-2-oxo-7-[2-(2-oxopyrrolidin-1-yl)ethoxy]-1,2-dihydroquinolin-3-yl}methyl)amino]-2-methoxybenzonitrile], for which the IC50 in test [1] was > 1000 nM; in test [2] it was 10 to 100 nM.
On the same counts, the results for `COc1cc(NCc2cc3cc(Cl)c(OCCN4CCCCC4)cc3[nH]c2=O)ccc1C#N` [Compound I-87, 4-[({6-chloro-2-oxo-7-[2-(piperidin-1-yl)ethoxy]-1,2-dihydroquinolin-3-yl}methyl)amino]-2-methoxybenzonitrile] are > 1000 nM and 10 to 100 nM.
For the molecule `COc1cc(NCc2cc3cc(Cl)c(OCCN4CCN(C)CC4)cc3[nH]c2=O)ccc1C#N` [Compound I-88, 4-[({6-chloro-7-[2-(4-methylpiperazin-1-yl)ethoxy]-2-oxo-1,2-dihydroquinolin-3-yl}methyl)amino]-2-methoxybenzonitrile], the concentration for half-maximal inhibition (IC50) was > 1000 nM in test [1] and 10 to 100 nM in test [2].
